This experiment has as its target T1, GPR7 (Homo sapiens, UniProt P48145).
T1 sequence (P48145 1-328): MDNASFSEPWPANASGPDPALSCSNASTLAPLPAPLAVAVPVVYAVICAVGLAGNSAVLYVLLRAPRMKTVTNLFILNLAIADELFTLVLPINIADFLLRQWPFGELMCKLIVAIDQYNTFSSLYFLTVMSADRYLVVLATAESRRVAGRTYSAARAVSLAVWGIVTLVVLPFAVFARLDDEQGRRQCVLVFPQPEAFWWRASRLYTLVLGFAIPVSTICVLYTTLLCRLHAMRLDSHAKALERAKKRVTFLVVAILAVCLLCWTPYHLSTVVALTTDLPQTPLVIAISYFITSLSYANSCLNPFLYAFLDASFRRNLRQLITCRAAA
Briefly: Test on binding inhibition of various peptides against human GPR7-expressed CHO cell membrane fraction. The arrangement: The synthetic primers were constructed so as to amplify the gene in the region to be translated to its receptor protein; expressed in transfected cells; host or cells: CHO cells, membrane fraction. Conditions: iodine-labeled hGPR7L-23; human GPR7-expressed CHO cell membrane fraction 1 μg/well; room temperature 1.5 hour. How it is done:
A mixture of 20 μl of hGPR7L-23 (SEQ ID NO:1) (0.1 mM or 1 mM), 20 μl of lactoperoxidase (Sigma; prepared using 10 μg/ml and 0.1M HEPES-NaOH pH7.0), 20 μl of Idoine-125 (manufactured by Amersham, MS-30, 74 MBq), 20 μl of 0.005% hydrogen peroxide (manufactured by Wako Pure Chemical Industries, Ltd.) was allowed to stand at room temperature for 20 to 30 minutes. Then, 600 μl of 0.1% TFA was added to the mixture. The mixture was applied to reverse phase HPLC for separation and the peaks of the two'labeled products were fractionated in a tube charged with 1 mL of DMSO. Immediately, the fraction was stored on ice and an aliquot was provided for measurement of the radioactivity with a γ-counter. The remaining preparation was dispensed and stored at −30° C.
Human GPR7-expressed CHO cells were cultured in a flask. The flask was washed with 5 mM EDTA/PBS to strip the cells off. The cells were stripped off with 5 mM EDTA/PBS and centrifuged for recovery. The recovered cells were suspended in 25 mL of a buffer for preparing membrane fraction (50 mM Tris-HCl, pH7.5, 5 mM EDTA, 0.1% bovine serum albumin (manufactured by Sigma), 0.5 mM PMSF (manufactured by Wako Pure Chemical Industries, Ltd.), 20 μg/mL leupeptin (manufactured by Peptide Research Institute), 0.1 μg/mL pepstatin A (manufactured by Peptide Research Institute) and 4 μg/mL E-64 (manufactured by Peptide Research Institute)), followed by homogenization on ice using a polytron (12,000 rpm, 15 seconds×3 times). The homogenate was centrifuged at 4° C. under 1,000 g for 10 minutes with a high speed cooling centrifuge to recover the supernatant. […] The pellets were recovered and suspended in a small quantity of the buffer for preparing membrane fractions. […]
Using the assay buffer, the human GPR7-expressed CHO cell membrane fraction was diluted in a final concentration of 1 μg/well and iodine-labeled hGPR7L-23 (SEQ ID NO:1) was diluted in a final concentration of […]. […] After 50 μl of a liquid scintillator was dispensed thereto, the radioactivity was counted on a Top Count (Packard) and the data was analyzed in triplet (FIG. 33). […]

No end group written: not given here.

As a reminder, the IC50 is the concentration needed to halve the response being measured. A low value points to inhibition by little substance. As for “WYKPTAGQGYYSVGRAAGLLSGFHRSPYA [Trp1-bovine GPR7L(29)]”, the IC50 came to 0.31 nM.
